Assay results as given in ChEMBL document CHEMBL1201862, “PubChem BioAssay data set” (2004).
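Five compound concentrations were applied to cells in 96-well plates for 48 hours; endpoints were derived by simple linear interpolation of the resulting dose-response curve. GI50: concentration for 50% inhibition of growth.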 Activity calls are given as the source filed them. Cut-off read from the data, not from the text of the source: active = GI50 up to about 1.1 µM and inactive = higher.

Tests used:
Experiment in all cases: NCI tumour cell line growth inhibition, 48 h
HCC 2998 = system: HCC 2998
U-251 = system: U-251
LOX IMVI = system: LOX IMVI
A549 = system: A549
MOLT-4 = system: MOLT-4
SK-MEL-2 = system: SK-MEL-2
SF-539 = system: SF-539
Malme-3M = system: Malme-3M
OVCAR-3 = system: OVCAR-3
786-0 = system: 786-0
SK-MEL-28 = system: SK-MEL-28
OVCAR-8 = system: OVCAR-8
COLO 205 = system: COLO 205
CCRF-CEM = system: CCRF-CEM
OVCAR-5 = system: OVCAR-5

Measured: GI50

COc1ccc(/C(=N/NC(=O)NN)C(c2ccc(OC)cc2)C2(O)CNc3c(Cl)cc(Cl)cc32)cc1 (stereo unspecified)
inactive: HCC 2998 > 100 µM | U-251 > 100 µM | LOX IMVI > 100 µM | A549 > 100 µM | MOLT-4 44.7 µM | SK-MEL-2 > 100 µM | SF-539 > 100 µM | Malme-3M > 100 µM | OVCAR-3 > 100 µM | 786-0 > 100 µM | SK-MEL-28 > 100 µM | OVCAR-8 > 100 µM | COLO 205 > 100 µM | CCRF-CEM 88.9 µM | OVCAR-5 > 100 µM

Cn1c(CBr)nc2c1C(=O)c1nc(CBr)[nH]c(=O)c1C2=O
inactive: U-251 > 100 µM | LOX IMVI 50.1 µM | A549 > 100 µM | MOLT-4 > 100 µM | SF-539 > 100 µM | 786-0 > 100 µM | SK-MEL-28 > 100 µM | OVCAR-8 > 100 µM | COLO 205 > 100 µM | CCRF-CEM 40.5 µM

CN1S(=O)(=O)N(C)P12(N=P(CP(=NP13(N(C)S(=O)(=O)N1C)N(C)S(=O)(=O)N3C)(c1ccccc1)c1ccccc1)(c1ccccc1)c1ccccc1)N(C)S(=O)(=O)N2C
inactive: HCC 2998 > 100 µM | U-251 > 100 µM | LOX IMVI > 100 µM | A549 > 100 µM | MOLT-4 > 100 µM | SK-MEL-2 > 100 µM | SF-539 > 100 µM | Malme-3M > 100 µM | OVCAR-3 > 100 µM | 786-0 > 100 µM | SK-MEL-28 > 100 µM | OVCAR-8 > 100 µM | COLO 205 > 100 µM | CCRF-CEM > 100 µM | OVCAR-5 > 100 µM

COc1cc(/C=C/c2ccc(OC(C)=O)cc2)cc(OC)c1OC
inactive: U-251 28 µM | LOX IMVI 29.2 µM | A549 26.1 µM | MOLT-4 16.7 µM | SF-539 18.6 µM | Malme-3M 26 µM | OVCAR-3 22.6 µM | 786-0 25.4 µM | SK-MEL-28 41.5 µM | OVCAR-8 31.2 µM | COLO 205 27.8 µM | CCRF-CEM 11.6 µM | OVCAR-5 18 µM

COc1ccc(/C=C/C(=O)c2sc(Nc3ccc([N+](=O)[O-])cc3)nc2C)cc1
inactive: HCC 2998 27.5 µM | U-251 65.2 µM | LOX IMVI 31.6 µM | A549 33 µM | MOLT-4 17.7 µM | SK-MEL-2 17.5 µM | SF-539 59.7 µM | Malme-3M 47 µM | OVCAR-3 26 µM | 786-0 48.8 µM | SK-MEL-28 40.2 µM | OVCAR-8 39.1 µM | COLO 205 45.7 µM | CCRF-CEM 25.6 µM | OVCAR-5 > 100 µM

CC(C)(C)OP(=O)(OC(C)(C)C)C(O)c1ccc(/C=C(\C#N)C(N)=O)cc1 (stereo unspecified)
inactive: HCC 2998 > 100 µM | U-251 > 100 µM | LOX IMVI > 100 µM | A549 > 100 µM | MOLT-4 > 100 µM | SK-MEL-2 > 100 µM | SF-539 > 100 µM | Malme-3M > 100 µM | OVCAR-3 > 100 µM | 786-0 > 100 µM | SK-MEL-28 > 100 µM | OVCAR-8 > 100 µM | COLO 205 > 100 µM | CCRF-CEM > 100 µM | OVCAR-5 > 100 µM

N#C/C(=C1\SC(/N=N/c2ccc(Cl)cc2)C(=O)N1c1ccccc1)c1nc2ccccc2[nH]1 (stereo unspecified)
inactive: U-251 20.3 µM | LOX IMVI 15 µM | A549 29.7 µM | SK-MEL-2 18.2 µM | SF-539 32.4 µM | Malme-3M 28.4 µM | OVCAR-3 17.1 µM | 786-0 13.7 µM | SK-MEL-28 36 µM | OVCAR-8 54.2 µM | COLO 205 25.2 µM | CCRF-CEM 16.9 µM | OVCAR-5 25.6 µM
